Tests used:
[1] = test system: basal mitophagy, wild type MEFs; assay: mito-QC basal mitophagy in wild-type primary MEFs; assay type: cell-based, mouse; settings: 24 h, 30–300 nM GZD-824, GSK3357679A 100 nM positive control
Method: (§1) To assess mitophagy, wild type, G2019S knock in, and LRRK2 knock out primary mouse embryonic fibroblasts (MEFs) were derived, from time-mated pregnant females at E12.5 as previously described. Briefly, cells were plated on glass coverslips and incubated with DMEM (Gibco, 11960-044) supplemented with 10% FBS, 2 mM L-Glutamine (Gibco, 2503-081), 1% non-essential amino acids (Gibco, 11140-035), 1% Antibiotics (Penicillin/Streptomycin 100 U/ml penicillin and 100 µg/ml streptomycin; Gibco), and 150 µM β-Mercaptoethanol (Gibco, 21985-023) at 37°C under a humidified 5% CO2 atmosphere. […] GSK3357679A 100 nM (Ding et al., in prep) was used as a positive control. At the end of the treatment, MEFs were briefly washed twice in DPBS (Gibco, 14190-094), and fixed in 3.7% Paraformaldehyde pH 7.00 (Sigma, P6148), 200 mM HEPES, for 20 min. Cells were then washed two times with DMEM, 10 mM HEPES, and then incubated for 10 min with DMEM, 10 mM HEPES. […] Images were acquired using a Nikon Eclipse Ti-S fluorescence microscope with a 63× objective. Images were analyzed using the mito-QC counter as previously described. Experiments were performed in 3–4 independent experiments and data was analyzed with a one-way ANOVA followed by a Dunnett's multiple comparison test using the GraphPad Prism software (version 8.4.3 (686)).

[2] = test system: Rab29 mediated relocalization of LRRK2 to the Golgi apparatus; assay: Rab29 mediated recruitment of LRRK2 to the Golgi, immunofluorescence in HeLa cells; assay type: cell-based, human; settings: 5 μM GZD-824 or 1 μM GSK3357679A for 4 h
Method: HeLa cells were seeded on coverslips and transfected with the plasmid reported in each image 24 h before fixation. Following the treatments with the inhibitors described in figure legends, cells were washed twice in DPBS and fixed with 3.7% Paraformaldehyde pH 7.3 (Agar scientific, #R1026), 200 mM HEPES, for 20 min. Cells were then washed twice with DMEM, 20 mM HEPES, and then incubated for 10 min with DMEM, 10 mM HEPES. After two washes in DPBS, fixed cells were permeabilized with 0.2% (by vol) NP-40 in DPBS for 10 min. Cells were blocked using 1% (by mass) BSA in DPBS, then incubated for 1 h with primary antibodies diluted in 1% (by mass) BSA in DPBS, washed three times in 0.2% (by mass) BSA in DPBS, and incubated for 1 h with secondary antibodies. The coverslips were washed three times with 0.2% (by mass) BSA in PBS. Coverslips were washed once more in double distilled water and mounted on slides (VWR, #631-0909) using ProLong™ Diamond Antifade Mountant (ThermoFisher, #P36961). For localization of the Golgi compartment, Golgin-97 was stained with rabbit anti-GM97 (CST, #D8P2K) and visualized with goat anti-rabbit conjugated to Alexa Fluor 405 (Life Technologies, #P10994). HA-Rab29 was stained with mouse anti-HA (Abcam, clone HA.C5 #ab18181) and visualized with goat anti-mouse conjugated to Alexa Fluor 594 (Life Technologies, #A-11032). […]

[3] = test system: Dundee panel of 140 protein kinases; assay: Kinase profiling; assay type: biochemical
Source text: […] Results for each kinase are presented as the mean kinase activity ±S.D. for an assay undertaken in duplicate relative to a control kinase assay in which the inhibitor was omitted. Abbreviations and assay conditions used for each kinase are available (http://www.kinase-screen.mrc.ac.uk/services/premier-screen).

[4] = test system: basal mitophagy, LRRK2 knock-out MEFs; assay: mito-QC basal mitophagy in LRRK2 knock-out primary MEFs; assay type: cell-based, mouse; settings: 24 h
Method: as §1

LRRK2 14-3-3 binding = test system: T1, LRRK2 14-3-3 binding; assay: Analysis of 14-3-3 binding in HEK293 cells overexpressing wild-type LRRK2; assay type: cell-based, human; settings: 5 μM GZD-824 for 4 h, 1 μM GSK3357679A
T1 construct: host or cells: HEK293
Method: This was undertaken as described previously. Briefly, wild-type FLAG-LRRK2 was transiently expressed in HEK293 cells with HA-Rab29. Twenty-four hours post-transfection cells were lysed with lysis buffer and snap frozen. LRRK2 was immunoprecipitated from 4 mg of lysate using 20 μl anti-FLAG-M2 agarose beads (Sigma, #A2220) for 2 h in rotation at +4°C. Immunoprecipitates were washed once with lysis buffer supplemented with 0.5% (by vol) Nonidet P-40 (instead of Triton X-100) and 0.5 M NaCl followed by two washes. Samples were eluted in 2× LDS sample buffer (20 µl per 10 µl of resin) and heated at 70°C for 10 min. After centrifugation through 0.22 µm Spin X filter, the eluted protein was subjected to immunoblotting with the indicated antibodies. An amount of 10 μl of the final reaction mixture was needed for the detection of binding of endogenous 14-3-3 and 1 µl for detection of LRRK2.

Flag-LRRK2[G2019S] = biological target: T2, Flag-LRRK2[G2019S] (Homo sapiens, UniProt Q5S007, G2019S); assay: IC50 LRRK2 Nictide assay, G2019S; assay type: biochemical; settings: read-out: IC50 LRRK2 G2019S (100 µM ATP), Nictide peptide substrate, value ± SD
T2 construct: towards full length wild type and G2019S pathogenic LRRK2 mutant in a biochemical assay; Flag (N); purchased ThermoFisher Scientific A15201
T2 sequence (Q5S007 whole entry G2019S): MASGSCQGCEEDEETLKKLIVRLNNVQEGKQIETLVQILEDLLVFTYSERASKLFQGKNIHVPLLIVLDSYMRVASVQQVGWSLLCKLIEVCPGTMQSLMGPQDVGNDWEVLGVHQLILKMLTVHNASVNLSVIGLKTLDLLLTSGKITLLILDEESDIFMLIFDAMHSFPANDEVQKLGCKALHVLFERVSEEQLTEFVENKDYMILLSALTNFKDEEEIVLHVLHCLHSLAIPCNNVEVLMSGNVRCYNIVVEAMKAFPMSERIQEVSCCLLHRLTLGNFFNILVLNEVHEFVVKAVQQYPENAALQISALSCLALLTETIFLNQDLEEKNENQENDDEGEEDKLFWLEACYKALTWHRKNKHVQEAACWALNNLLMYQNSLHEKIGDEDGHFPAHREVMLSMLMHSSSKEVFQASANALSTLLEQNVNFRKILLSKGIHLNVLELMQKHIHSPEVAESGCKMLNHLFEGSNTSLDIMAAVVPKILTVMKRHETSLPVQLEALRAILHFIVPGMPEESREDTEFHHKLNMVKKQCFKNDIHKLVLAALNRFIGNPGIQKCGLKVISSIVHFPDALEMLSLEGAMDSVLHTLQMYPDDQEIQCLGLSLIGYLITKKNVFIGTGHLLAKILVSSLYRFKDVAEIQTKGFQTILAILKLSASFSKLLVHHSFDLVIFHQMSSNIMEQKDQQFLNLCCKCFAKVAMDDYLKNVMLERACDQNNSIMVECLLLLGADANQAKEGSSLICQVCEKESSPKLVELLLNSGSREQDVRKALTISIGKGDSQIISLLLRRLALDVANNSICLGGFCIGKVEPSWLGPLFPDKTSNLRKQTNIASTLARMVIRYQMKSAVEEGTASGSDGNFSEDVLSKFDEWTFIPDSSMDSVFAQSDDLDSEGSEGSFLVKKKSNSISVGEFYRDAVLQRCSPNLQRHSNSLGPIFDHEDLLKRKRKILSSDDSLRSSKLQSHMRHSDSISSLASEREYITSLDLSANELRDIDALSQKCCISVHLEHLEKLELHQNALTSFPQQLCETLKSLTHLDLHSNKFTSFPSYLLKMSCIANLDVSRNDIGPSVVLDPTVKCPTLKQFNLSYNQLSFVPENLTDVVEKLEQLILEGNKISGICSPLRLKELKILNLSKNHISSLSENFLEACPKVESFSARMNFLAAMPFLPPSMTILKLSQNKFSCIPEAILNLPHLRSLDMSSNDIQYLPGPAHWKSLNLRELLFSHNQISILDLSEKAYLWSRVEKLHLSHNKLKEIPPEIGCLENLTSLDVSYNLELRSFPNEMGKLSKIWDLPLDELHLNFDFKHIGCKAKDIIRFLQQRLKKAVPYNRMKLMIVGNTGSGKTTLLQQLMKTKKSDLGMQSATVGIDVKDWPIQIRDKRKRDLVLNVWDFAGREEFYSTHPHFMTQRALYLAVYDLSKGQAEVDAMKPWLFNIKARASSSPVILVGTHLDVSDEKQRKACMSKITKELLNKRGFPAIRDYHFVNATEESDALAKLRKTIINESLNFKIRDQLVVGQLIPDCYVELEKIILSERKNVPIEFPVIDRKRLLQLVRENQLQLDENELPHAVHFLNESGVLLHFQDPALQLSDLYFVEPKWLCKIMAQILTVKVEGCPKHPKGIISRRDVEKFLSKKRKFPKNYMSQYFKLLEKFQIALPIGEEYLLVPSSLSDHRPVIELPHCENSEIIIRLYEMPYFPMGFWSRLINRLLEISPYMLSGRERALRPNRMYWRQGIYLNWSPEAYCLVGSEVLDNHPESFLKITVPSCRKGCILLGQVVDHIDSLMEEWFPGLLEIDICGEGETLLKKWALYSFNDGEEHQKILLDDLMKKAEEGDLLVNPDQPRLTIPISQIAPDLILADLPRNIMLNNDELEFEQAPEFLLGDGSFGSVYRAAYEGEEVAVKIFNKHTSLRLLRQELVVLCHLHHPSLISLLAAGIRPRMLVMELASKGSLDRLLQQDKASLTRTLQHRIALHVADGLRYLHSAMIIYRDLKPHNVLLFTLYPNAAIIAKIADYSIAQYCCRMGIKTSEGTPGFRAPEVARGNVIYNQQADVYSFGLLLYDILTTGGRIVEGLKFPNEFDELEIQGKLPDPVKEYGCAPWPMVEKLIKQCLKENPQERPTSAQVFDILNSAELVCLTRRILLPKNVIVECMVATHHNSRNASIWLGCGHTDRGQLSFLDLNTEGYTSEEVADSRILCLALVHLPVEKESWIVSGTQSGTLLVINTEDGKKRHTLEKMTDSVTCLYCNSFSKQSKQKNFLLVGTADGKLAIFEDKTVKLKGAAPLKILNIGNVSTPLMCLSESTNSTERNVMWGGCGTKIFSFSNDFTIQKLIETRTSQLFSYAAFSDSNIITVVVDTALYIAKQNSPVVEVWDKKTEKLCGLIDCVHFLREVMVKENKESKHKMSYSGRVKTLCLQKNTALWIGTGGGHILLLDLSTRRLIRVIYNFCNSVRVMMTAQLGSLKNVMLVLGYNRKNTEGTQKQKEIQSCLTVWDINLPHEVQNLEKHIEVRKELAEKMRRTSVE

wild-type Flag-LRRK2 = biological target: T3, wild-type Flag-LRRK2 (Homo sapiens, UniProt Q5S007); assay: IC50 LRRK2 Nictide assay, wild type; assay type: biochemical
T3 construct: Human recombinant full length wild-type Flag-LRRK2 (#A15198); Flag (N); purchased ThermoFisher Scientific A15198
T3 sequence (Q5S007 whole entry): as the sequence (Q5S007 whole entry G2019S) above, with S2019G counted along it
Method: (#A15201) purchased from ThermoFisher Scientific. […] After incubation for 30 min at room temperature, reactions were terminated by harvesting the whole reaction volume onto P81 phosphocellulose filter plate and immersion in 50 mM phosphoric acid. […] IC50 values were calculated with GraphPad Prism using non-linear regression analysis.

[5] = test system: basal mitophagy, LRRK2[G2019S] MEFs; assay: mito-QC basal mitophagy in LRRK2[G2019S] knock-in primary MEFs; assay type: cell-based, mouse; settings: 24 h, 30–300 nM GZD-824, GSK3357679A 100 nM positive control
Method: as §1

[6] = test system: LRRK2 Ser935 phosphorylation; assay: Ser935 phosphorylation in HEK293 cells overexpressing wild-type LRRK2; assay type: cell-based, human; settings: 1 μM
Method: Cell extracts were mixed with a quarter of a volume of NuPage LDS Sample buffer 4× Invitrogen and heated at 95°C for 5 min. […] At the end of electrophoresis, proteins were electrophoretically transferred onto the nitrocellulose membrane (GE Healthcare, Amersham Protran Supported 0.45 µm NC) at 100 V for 90 min on ice in the transfer buffer (48 mM Tris–HCl and 39 mM glycine supplemented with 20% methanol). Transferred membrane was blocked with 5% (w/v) skim milk powder dissolved in TBS-T [20 mM Tris–HCl, pH 7.5, 150 mM NaCl and 0.1% (v/v) Tween 20] at room temperature for 1 h. The membrane was typically cropped into three pieces, namely the ‘top piece’ (from the top of the membrane to 75 kDa), the ‘middle piece’ (between 75 and 30 kDa) and the ‘bottom piece’ (from 30 kDa to the bottom of the membrane). All primary antibodies were used at 1 μg/ml final concentration and incubated in TBS-T containing 5% (by mass) bovine serum albumin with exception of α-tubulin and GAPDH antibodies that were diluted 1 : 5000 and 1 : 2000, respectively. The top piece was incubated with the indicated rabbit anti-LRRK2 phosphorylation site antibody multiplexed with mouse anti-LRRK2 C-terminus total antibody. […] Protein bands were acquired via near infrared fluorescent detection using the Odyssey CLx imaging system and quantified using the Image Studio software. […]

kinase selectivity (panel of 140 protein kinases) [3]: highly selective | IC50 (Flag-LRRK2[G2019S]): 340 pM | IC50 LRRK2 WT (100 µM ATP) (wild-type Flag-LRRK2; Nictide peptide substrate, value ± SD): sub-nanomolar potency | IC50 (wild-type Flag-LRRK2; read-out: IC50 LRRK2 WT (100 µM ATP), Nictide peptide substrate, value ± SD): 300 pM
Substance: GSK3357679A
stimulation of basal mitophagy [1]: ~2 fold | impact on Rab29 mediated recruitment of LRRK2 to the Golgi [2]: no impact | impact on basal mitophagy in LRRK2 knock-out cells [4]: neither GZD-824 or GSK3357679A impacted basal mitophagy | impact on 14-3-3 binding to LRRK2 (LRRK2 14-3-3 binding): ablated | stimulation of basal mitophagy [5]: ~2 fold | effect on Ser935 phosphorylation [6]: ablated
